# Source: US20240417387A1, “SULFONYLPIPERAZINYL COMPOUNDS FOR TREATMENT OF BACTERIAL INFECTIONS” (Hoffmann-La Roche Inc., priority 2021, published 2024)
# Key:
# [1] = target: Escherichia coli UDP-2,3-diacylglucosamine hydrolase (LpxH) (Escherichia coli (strain K12), UniProt P43341); experiment: Enzymatic IC50 assay of Escherichia coli LpxH (UMP/CMP-Glo luminescence); type: biochemical; settings: Enzymatic IC50 against Escherichia coli LpxH; read-out: IC50 (converted)
# Protocol: The inhibitory potency of compounds of Escherichia coli UDP-2,3-diacylglucosamine hydrolase (LpxH) was determined in an enzymatic assay. UDP-2,3-diacylglucosamine (UDP-DAG) was purified from the Caulobacter crescentus LpxI D225A mutant protein that contained a tightly bound UDP-DAG molecule. The enzyme was diluted using assay buffer containing 50 mM NaCl, 20 mM Tris-HCl pH7.5, 2.5 mM MnCl2, 0.01% Triton X-100.1 mg/mL BSA, and the final concentration is 2 nM. The compounds were diluted by Agilent liquid handler Bravo, the compound's serial dilution dose ranges from 100 μM to 1.7 nM. Then the enzyme and compounds mixture were incubated at room temperature for 10 mins. The enzymatic assay was started by adding UDP-DAG (FAC is 5 μM) and incubated for 20 mins at room temperature. The plate was then heated to 95° C. for 15 mins on a water batch to stop the reaction. The hydrolysis of UDP-DAG by LpxH yielded 2,3-diacylglucosamine 1-phosphate (lipid X) and UMP, which was converted to ATP and quantified by the luciferase reaction using the UMP/CMP-Glo™ Glycosyltransferase Assay kit from Promega. The compound's inhibitory effect of LpxH is determined by measuring the light change using a luminometer (Envision).
# [2] = system: Escherichia coli ATCC 25922; experiment: Minimal Inhibitory Concentration (MIC) broth dilution assay, E. coli ATCC 25922; type: cell-based; settings: for MIC: Escherichia coli, ATCC25922, 20 h, read-out: MIC E. coli ATCC 25922
# Protocol: (§1) The antibacterial activity of molecules was evaluated against the commonly used quality control strain Escherichia coli BW 25113, Escherichia coli ATCC 25922 and the rifampin-resistant mutant strain Klebsiella pneumonia ATCC 43816. Escherichia co/i BW 25113 was obtained from the Coli Genetic Stock Center (CGSC) (strain 7636). Both Escherichia coli ATCC 25922 and Klebsiella pneumonia ATCC 43816 were originally derived from human clinical samples and are available from ATCC (American Type Culture Collection). The in vitro potency of compounds to inhibit Escherichia coli (BW 25113, ATCC 25922) and Klebsiella pneumonia (ATCC 43816) growth was assessed by the MIC (Minimal Inhibitory Concentration) broth dilution method. Specifically compound dilutions were prepared from 10 mM DMSO stock solutions as follows: i) serial 2-fold dilution in 20 μL DMSO were prepared in a master plate (Greiner, Cat No: 651201), ii) 180 μL sterile distilled water was added to each aliquot and iii) 10 μL diluted compounds were transferred into a new assay plate (Costar, 3599).
# (§2) Vials of each test microorganisms were maintained frozen in the vapor phase of a liquid nitrogen freezer. Single-use frozen vials of the three strains Escherichia coli BW 25113, Escherichia coli ATCC 25922 (KWTKSTTK, 0335K) and Klebsiella pneumonia ATCC 43816, with predetermined CFU/mL, were taken out from the freezer, thawed at room temperature, and diluted in Cation-Adjusted Mueller Hinton Broth (CAMVIHB) to achieve a final inoculum of 5×10^5 CFU/mL. 90 μL bacteria containing broth was dispensed to the assay plate containing the pre-dispensed compound dilutions and mixed by pipetting 5 times.
# (§3) Then the assay plates were incubated for 20 hours at 35° C. in ambient air. Following incubation, the MIC […], the lowest concentration of drug that inhibits visible growth of the microorganism was read with the help of a magnification mirror and recorded.
# [3] = system: Klebsiella pneumonia ATCC 43816; experiment: Minimal Inhibitory Concentration (MIC) broth dilution assay, K. pneumonia ATCC 43816; type: cell-based; settings: CAMHB; for MIC: Klebsiella pneumoniae, ATCC43816, 20 hours at 35° C., read-out: MIC K. p ATCC 43816
# Protocol: as §1, §2, §3
# [4] = system: Escherichia coli BW 25113; experiment: Minimal Inhibitory Concentration (MIC) broth dilution assay, E. coli BW 25113; type: cell-based; settings: CAMHB; for MIC: Escherichia coli, BW25113, 20 hours at 35° C., read-out: MIC E. coli K-12 BW 25113
# Protocol: as §1, §2, §3
# [5] = Human microsome stability assay; type: in vitro ADME
# Protocol: The human microsomal stability assay is used for early assessment of metabolic stability of a test compound in human liver microsomes.
# Human liver microsomes (Cat.NO.: 452117, Corning, USA) were preincubated with test compound for 10 minutes at 37° C. in 100 mM potassium phosphate buffer, pH 7.4. The reactions were initiated by adding NADPH regenerating system. The final incubation mixtures contained 1 µM test compound, 0.5 mg/mL liver microsomal protein, 1 mM MgCl2, 1 mM NADP, 1 unit/mL isocitric dehydrogenase and 6 mM isocitric acid in 100 mM potassium phosphate buffer, pH 7.4. After incubation times of 0, 3, 6, 9, 15 and 30 minutes at 37° C., 300 μL of cold acetonitrile (including internal standard) was added to 100 μL incubation mixture to terminate the reaction. Following precipitation and centrifugation, the amount of compound remaining in the samples were determined by LC-MS/MS. Controls of no NADPH regenerating system at zero and 30 minutes were also prepared and analyzed. […] (Human microsome clearance: <7 mL/min/kg: low; 7-16.2 mL/min/kg: medium; >16.2 mL/min/kg: high)
# [6] = human liver microsomes 0.5 mg/mL, 37° C., pH 7.4, NADPH regenerating system
# Chain of Escherichia coli UDP-2,3-diacylglucosamine hydrolase (LpxH) (P43341 whole entry): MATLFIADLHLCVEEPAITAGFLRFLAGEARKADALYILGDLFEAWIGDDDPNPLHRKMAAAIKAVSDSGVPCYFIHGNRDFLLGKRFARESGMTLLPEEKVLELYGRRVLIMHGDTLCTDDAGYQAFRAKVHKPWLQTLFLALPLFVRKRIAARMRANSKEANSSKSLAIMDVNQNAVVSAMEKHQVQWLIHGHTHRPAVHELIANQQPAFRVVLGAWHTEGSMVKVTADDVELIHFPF
Compound,IC50 [1],MIC [2],MIC [3],MIC [4],"Clearance of Human microsome [5, 6]","MIC E. coli K-12 ATCC 25922 ([2]; broth dilution, 20 hours at 35° C., CAMHB)",MIC K. p ATCC 43816 ([3]; 20 hours at 35° C.),MIC E. coli K-12 BW 25113 ([4]; 20 hours at 35° C.),"Clearance of Human microsome ([5]; human, microsomes, pH 7.4)"
"N[C@@H]1CC(=O)N(c2ccc(S(=O)(=O)N3CCN(c4cc(C(F)(F)c5cnc(C(=O)NCCN6CCOCC6)cn5)cc(Cl)n4)CC3)cc2)C1 [Example 025, 5-[[2-chloro-6-[4-[4-[(4R)-4-amino-2-oxo-pyrrolidin-1-yl]phenyl]sulfonylpiperazin-1-yl]-4-pyridyl]-difluoro-methyl]-N-(2-morpholinoethyl)pyrazine-2-carboxamide]",< 2.78 nM,,,,,,,,
NCCCNC(=O)C1C[C@@H]2CC[C@H]1CC2C(F)(F)c1cc(Cl)nc(N2CCN(S(=O)(=O)c3ccc(N4C[C@H](N)CC4=O)cc3)CC2)c1 (stereo partly drawn) [Example 053],,0.57 µg/mL,0.54 µg/mL,0.55 µg/mL,6.15 mL/min/kg,,,,
"Cc1cc(C(F)(F)[C@H]2CC[C@H](C(=O)NCCCN)CC2)nc(N2CCN(S(=O)(=O)c3ccc(N4C[C@H](N)CC4=O)cc3)CC2)n1 [Example 054, Trans-N-(3-aminopropyl)-4-[difluoro-[6-methyl-2-[4-[4-[(4R)-4-amino-2-oxo-pyrrolidin-1-yl]phenyl]sulfonylpiperazin-1-yl]pyrimidin-4-yl]methyl]cyclohexanecarboxamide]",37 nM,,,,,,,,
"C[C@H]1C[C@H](N)CN1C(=O)[C@H]1CC[C@H](C(F)(F)c2cc(Cl)nc(N3CCN(S(=O)(=O)c4ccc(N5C[C@H](N)CC5=O)cc4)CC3)c2)CC1 [Example 064, (4R)-4-amino-1-[4-[4-[4-[[4-[(2S,4S)-4-amino-2-methyl-pyrrolidine-1-carbonyl]cyclohexyl]-difluoro-methyl]-6-chloro-2-pyridyl]piperazin-1-yl]sulfonylphenyl]pyrrolidin-2-one]",,0.57 µg/mL,0.57 µg/mL,0.67 µg/mL,6.15 mL/min/kg,,,,
"C[N+](CCN)(CCN)CCCNC(=O)[C@H]1CC[C@H](C(F)(F)c2cc(Cl)nc(N3CCN(S(=O)(=O)c4ccc(N5C[C@H](N)CC5=O)cc4)CC3)c2)CC1 [Example 065, Trans-bis(2-aminoethyl)-[3-[[4-[[2-[4-[4-[(4R)-4-amino-2-oxo-pyrrolidin-1-yl]phenyl]sulfonylpiperazin-1-yl]-6-chloro-4-pyridyl]-difluoro-methyl]cyclohexanecarbonyl]amino]propyl]-methyl-ammonium]",,0.66 µg/mL,0.66 µg/mL,0.66 µg/mL,8.21 mL/min/kg,,,,
"NC[C@@H]1CN(C(=O)[C@H]2CC[C@H](C(F)(F)c3cc(Cl)nc(N4CCN(S(=O)(=O)c5ccc(N6C[C@H](N)CC6=O)cc5)CC4)c3)CC2)C[C@@H]1CN [Example 067, Trans-(4R)-4-amino-1-[4-[4-[4-[[4-[cis-3,4-bis(aminomethyl)pyrrolidine-1-carbonyl]cyclohexyl]-difluoro-methyl]-6-chloro-2-pyridyl]piperazin-1-yl]sulfonylphenyl]pyrrolidin-2-one]",,0.3 µg/mL,0.57 µg/mL,0.59 µg/mL,6.15 mL/min/kg,,,,
"C[C@H]1CNC[C@@H]1NC(=O)[C@H]1CC[C@H](C(F)(F)c2cc(Cl)nc(N3CCN(S(=O)(=O)c4ccc(N5C[C@H](N)CC5=O)cc4)CC3)c2)CC1 [Example 068, Trans-4-[[2-[4-[4-[(4R)-4-amino-2-oxo-pyrrolidin-1-yl]phenyl]sulfonylpiperazin-1-y1]-6-chloro-4-pyridy1]-difluoro-methyl]-N-[(3R,4S)-4-methylpyrrolidin-3-yl]cyclohexanecarboxamide]",,0.32 µg/mL,0.32 µg/mL,0.32 µg/mL,9.49 mL/min/kg,,,,
"CN[C@@H]1CC(=O)N(c2ccc(S(=O)(=O)N3CCN(c4cc(C(F)(F)[C@H]5CC[C@H](C(=O)NCCCN)CC5)cc(Cl)n4)CC3)cc2)C1 [Example 069, Trans-N-(3-aminopropyl)-4-[[2-chloro-6-[4-[4-[(4R)-4-(methylamino)-2-oxo-pyrrolidin-1-yl]phenyl]sulfonylpiperazin-1-y1]-4-pyridyl]-difluoro-methyl]cyclohexanecarboxamide]",,0.56 µg/mL,0.56 µg/mL,0.56 µg/mL,10.85 mL/min/kg,,,,
"NCC(=O)N[C@H]1CC[C@@H](NC(=O)[C@H]2CC[C@H](C(F)(F)c3cc(Cl)nc(N4CCN(S(=O)(=O)c5ccc(N6C[C@H](N)CC6=O)cc5)CC4)c3)CC2)C1 [Example 079, Trans-N-[(1R,3S)-3-[(2-aminoacetyl)amino]cyclopentyl]-4-[[2-[4-[4-[(4R)-4-amino-2-oxo-pyrrolidin-1-yl]phenyl]sulfonylpiperazin-1-yl]-6-chloro-4-pyridyl]-difluoro-methyl]cyclohexanecarboxamide]",,3.4 µg/mL,0.85 µg/mL,3.4 µg/mL,11.16 mL/min/kg,,,,
"N[C@@H]1CC(=O)N(c2ccc(S(=O)(=O)N3CCN(c4cc(C(F)(F)[C@H]5CC[C@H](C(=O)N[C@H]6CCC(N7C[C@H](N)C[C@H](N)C7)C6)CC5)cc(Cl)n4)CC3)cc2)C1 (stereo partly drawn) [Example 081, Trans-4-[[2-chloro-6-[4-[4-[(4R)-4-amino-2-oxo-pyrrolidin-1-yl]phenyl]sulfonylpiperazin-1-yl]-4-pyridyl]-difluoro-methyl]-N-[(1S)-3-[cis-3,5-diamino-1-piperidyl]cyclopentyl]cyclohexanecarboxamide]",,0.65 µg/mL,0.65 µg/mL,0.65 µg/mL,6.71 mL/min/kg,,,,
"C[N+](C)(CCCN)CCCNC(=O)[C@H]1CC[C@H](C(F)(F)c2cc(Cl)nc(N3CCN(S(=O)(=O)c4ccc(N5C[C@H](N)CC5=O)cc4)CC3)c2)CC1 [Example 084, Trans-3-[[4-[[2-[4-[4-[(4R)-4-amino-2-oxo-pyrrolidin-1-yl]phenyl]sulfonylpiperazin-1-yl]-6-chloro-4-pyridyl]-difluoro-methyl]cyclohexanecarbonyl]amino]propyl-(3-aminopropyl)-dimethyl-ammonium]",,0.48 µg/mL,0.81 µg/mL,0.48 µg/mL,9.7 mL/min/kg,,,,
"Trans-N-[(1R,3S)-3-aminocyclopentyl]-4-[2-[4-[4-[(4R)-4-amino-2-oxo-pyrrolidin-1-yl]phenyl]sulfonylpiperazin-1-yl]-6-chloro-4-pyridyl]-difluoro-methyl]cyclohexanecarboxamide [Example 066]",,,,,,0.63 µg/mL,0.59 µg/mL,1.3 µg/mL,6.15 mL/min/kg
